“And” between values parts separate entries of the source, which are not always exact repeats. Equal entries are not always repeated. Where two headings read alike, the source gives them in different places.
Legend:
Assay in all cases: SelectScreen kinase assay
[1] = target: LRRK2 (Homo sapiens, UniProt Q5S007)
Procedure: (§1) Selectivity profiling assays were performed by the Invitrogen SelectScreen™ Services. […] The concentration of ATP was selected to be equal to the KM, unless indicated otherwise.

[2] = target: T1, MAP2K3 (MEK3) (Homo sapiens, UniProt P46734)
T1 sequence (P46734 1-347): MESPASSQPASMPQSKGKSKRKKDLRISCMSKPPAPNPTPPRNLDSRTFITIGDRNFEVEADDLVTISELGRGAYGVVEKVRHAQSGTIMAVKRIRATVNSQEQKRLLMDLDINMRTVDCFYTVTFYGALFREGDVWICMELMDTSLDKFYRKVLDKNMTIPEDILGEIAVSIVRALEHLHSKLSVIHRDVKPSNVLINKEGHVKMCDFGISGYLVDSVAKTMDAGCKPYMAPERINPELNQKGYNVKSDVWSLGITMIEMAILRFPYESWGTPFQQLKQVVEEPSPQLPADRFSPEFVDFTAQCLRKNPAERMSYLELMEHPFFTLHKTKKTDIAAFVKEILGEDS
Procedure: as §1

[3] = target: CDK8/cyclin C (Homo sapiens, UniProt P49336); conditions: read-out: Inhibition at 1 µM (%)
Procedure: as §1

[4] = target: TAOK2 (TAO1) (Homo sapiens, UniProt Q9UL54)
TAOK2 (TAO1), sequence (Q9UL54 whole entry): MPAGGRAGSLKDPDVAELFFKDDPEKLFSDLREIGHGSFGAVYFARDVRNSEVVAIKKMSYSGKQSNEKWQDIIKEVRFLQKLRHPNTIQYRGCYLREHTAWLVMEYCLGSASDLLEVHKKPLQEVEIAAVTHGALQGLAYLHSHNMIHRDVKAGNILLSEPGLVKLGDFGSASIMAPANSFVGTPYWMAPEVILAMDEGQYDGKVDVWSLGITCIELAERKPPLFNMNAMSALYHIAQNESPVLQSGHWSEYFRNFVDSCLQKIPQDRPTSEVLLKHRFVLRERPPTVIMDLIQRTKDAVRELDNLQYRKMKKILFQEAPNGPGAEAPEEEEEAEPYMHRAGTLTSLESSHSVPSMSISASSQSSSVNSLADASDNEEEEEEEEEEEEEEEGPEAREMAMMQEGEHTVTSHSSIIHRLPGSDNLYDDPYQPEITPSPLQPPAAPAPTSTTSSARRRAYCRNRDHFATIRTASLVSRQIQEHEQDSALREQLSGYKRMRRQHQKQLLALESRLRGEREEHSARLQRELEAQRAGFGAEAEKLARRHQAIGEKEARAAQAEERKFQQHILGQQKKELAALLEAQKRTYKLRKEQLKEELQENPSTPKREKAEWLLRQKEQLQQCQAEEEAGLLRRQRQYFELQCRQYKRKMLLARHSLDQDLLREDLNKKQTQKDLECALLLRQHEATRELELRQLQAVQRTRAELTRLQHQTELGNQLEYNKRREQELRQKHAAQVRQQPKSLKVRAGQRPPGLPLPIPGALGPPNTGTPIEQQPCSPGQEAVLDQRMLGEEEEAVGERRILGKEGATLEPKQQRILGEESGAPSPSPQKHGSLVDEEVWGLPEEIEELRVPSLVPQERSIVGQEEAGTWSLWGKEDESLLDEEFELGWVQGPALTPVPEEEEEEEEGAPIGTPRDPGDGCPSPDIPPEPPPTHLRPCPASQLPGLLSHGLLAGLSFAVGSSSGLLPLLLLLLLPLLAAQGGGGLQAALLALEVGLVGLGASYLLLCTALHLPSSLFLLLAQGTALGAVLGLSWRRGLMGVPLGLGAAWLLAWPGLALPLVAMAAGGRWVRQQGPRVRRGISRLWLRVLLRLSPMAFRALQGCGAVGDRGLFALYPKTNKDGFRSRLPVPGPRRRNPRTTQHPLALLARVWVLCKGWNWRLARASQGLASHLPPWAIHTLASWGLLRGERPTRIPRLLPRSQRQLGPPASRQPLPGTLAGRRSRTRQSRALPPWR
Procedure: as §1

[5] = target: NEK2 (Homo sapiens, UniProt P51955)
Procedure: as §1

[6] = target: EPHA4 (Homo sapiens, UniProt P54764)
Procedure: as §1

[7] = target: RPS6KA1 (RSK1) (Homo sapiens, UniProt Q15418)
RPS6KA1 (RSK1), sequence (Q15418 whole entry): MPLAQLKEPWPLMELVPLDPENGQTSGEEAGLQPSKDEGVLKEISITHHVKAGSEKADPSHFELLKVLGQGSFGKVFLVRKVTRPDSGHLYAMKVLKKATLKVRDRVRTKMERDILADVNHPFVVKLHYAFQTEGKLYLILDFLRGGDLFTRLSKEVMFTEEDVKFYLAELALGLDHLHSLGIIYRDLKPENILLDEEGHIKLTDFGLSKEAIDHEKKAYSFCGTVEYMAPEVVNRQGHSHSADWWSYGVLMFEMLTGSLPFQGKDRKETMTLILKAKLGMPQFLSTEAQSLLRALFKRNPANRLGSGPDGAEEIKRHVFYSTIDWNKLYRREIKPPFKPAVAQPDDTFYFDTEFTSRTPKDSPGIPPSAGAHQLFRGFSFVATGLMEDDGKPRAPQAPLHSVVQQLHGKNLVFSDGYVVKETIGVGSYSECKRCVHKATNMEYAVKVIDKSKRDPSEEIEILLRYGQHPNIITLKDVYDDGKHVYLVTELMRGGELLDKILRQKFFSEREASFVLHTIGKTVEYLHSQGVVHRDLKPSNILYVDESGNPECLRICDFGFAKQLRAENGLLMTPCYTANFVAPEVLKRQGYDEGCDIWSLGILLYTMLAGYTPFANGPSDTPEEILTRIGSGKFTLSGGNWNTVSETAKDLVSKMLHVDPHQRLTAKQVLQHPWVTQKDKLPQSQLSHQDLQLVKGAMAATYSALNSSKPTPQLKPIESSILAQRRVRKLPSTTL
Procedure: as §1

[8] = target: PRKACA (PKA) (Homo sapiens, UniProt P17612)
Procedure: as §1

[9] = target: PRKACG (PRKAC gamma) (Homo sapiens, UniProt P22612); conditions: for Inhibition at 1 µM (%): PRKACG (PRKAC gamma), LanthaScreen Binding
PRKACG (PRKAC gamma), sequence (P22612 whole entry): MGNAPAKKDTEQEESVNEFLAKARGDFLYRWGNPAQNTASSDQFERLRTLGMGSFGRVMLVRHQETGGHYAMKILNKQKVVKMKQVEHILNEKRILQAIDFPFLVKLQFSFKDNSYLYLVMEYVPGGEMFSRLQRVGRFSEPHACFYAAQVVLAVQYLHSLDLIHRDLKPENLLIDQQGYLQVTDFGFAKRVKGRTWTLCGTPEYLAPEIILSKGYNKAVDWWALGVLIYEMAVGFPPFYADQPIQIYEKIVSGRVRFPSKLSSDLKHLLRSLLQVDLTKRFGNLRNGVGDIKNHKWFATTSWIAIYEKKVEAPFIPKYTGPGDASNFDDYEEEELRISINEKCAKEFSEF
Procedure: as §1

[10] = target: EPHA6 (Homo sapiens, UniProt Q9UF33)
Procedure: as §1

[11] = target: PAK4 (Homo sapiens, UniProt O96013)
PAK4, sequence (O96013 whole entry): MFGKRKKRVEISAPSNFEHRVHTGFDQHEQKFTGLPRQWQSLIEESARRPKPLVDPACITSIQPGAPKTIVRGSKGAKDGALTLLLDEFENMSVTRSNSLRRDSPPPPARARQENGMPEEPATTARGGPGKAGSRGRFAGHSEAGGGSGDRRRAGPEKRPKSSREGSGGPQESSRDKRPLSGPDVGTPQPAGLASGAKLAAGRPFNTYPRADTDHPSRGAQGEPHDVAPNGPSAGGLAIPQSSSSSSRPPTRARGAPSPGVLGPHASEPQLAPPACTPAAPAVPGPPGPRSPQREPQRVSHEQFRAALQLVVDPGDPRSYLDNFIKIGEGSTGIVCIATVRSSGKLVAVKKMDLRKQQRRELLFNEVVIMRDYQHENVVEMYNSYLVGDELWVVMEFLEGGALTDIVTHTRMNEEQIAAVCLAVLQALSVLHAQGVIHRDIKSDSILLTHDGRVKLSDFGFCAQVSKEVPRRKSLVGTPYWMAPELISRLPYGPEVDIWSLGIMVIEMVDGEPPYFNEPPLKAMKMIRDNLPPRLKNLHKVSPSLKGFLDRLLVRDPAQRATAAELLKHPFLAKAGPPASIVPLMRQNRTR
Procedure: as §1

[12] = target: MAPK7 (ERK5) (Homo sapiens, UniProt Q13164)
Procedure: as §1

[13] = target: MAP4K2 (GCK) (Homo sapiens, UniProt Q12851)
Procedure: as §1

[14] = target: BLK (Homo sapiens, UniProt P51451)
BLK, sequence (P51451 whole entry): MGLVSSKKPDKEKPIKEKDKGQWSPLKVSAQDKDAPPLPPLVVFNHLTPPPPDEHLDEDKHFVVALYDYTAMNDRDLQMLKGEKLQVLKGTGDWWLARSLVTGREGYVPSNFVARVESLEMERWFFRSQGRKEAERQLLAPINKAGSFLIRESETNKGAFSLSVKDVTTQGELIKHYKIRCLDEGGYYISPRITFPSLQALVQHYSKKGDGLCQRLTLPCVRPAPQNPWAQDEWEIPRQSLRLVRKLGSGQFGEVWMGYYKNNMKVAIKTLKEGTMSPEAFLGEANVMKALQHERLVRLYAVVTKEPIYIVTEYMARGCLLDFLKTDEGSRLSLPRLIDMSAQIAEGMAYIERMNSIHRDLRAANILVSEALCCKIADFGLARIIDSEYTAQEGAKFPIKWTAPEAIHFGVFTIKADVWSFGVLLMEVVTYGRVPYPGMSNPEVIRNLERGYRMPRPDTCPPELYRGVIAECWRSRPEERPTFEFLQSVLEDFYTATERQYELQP
Procedure: as §1

[15] = target: TESK1 (Homo sapiens, UniProt Q15569)
TESK1, sequence (Q15569 whole entry): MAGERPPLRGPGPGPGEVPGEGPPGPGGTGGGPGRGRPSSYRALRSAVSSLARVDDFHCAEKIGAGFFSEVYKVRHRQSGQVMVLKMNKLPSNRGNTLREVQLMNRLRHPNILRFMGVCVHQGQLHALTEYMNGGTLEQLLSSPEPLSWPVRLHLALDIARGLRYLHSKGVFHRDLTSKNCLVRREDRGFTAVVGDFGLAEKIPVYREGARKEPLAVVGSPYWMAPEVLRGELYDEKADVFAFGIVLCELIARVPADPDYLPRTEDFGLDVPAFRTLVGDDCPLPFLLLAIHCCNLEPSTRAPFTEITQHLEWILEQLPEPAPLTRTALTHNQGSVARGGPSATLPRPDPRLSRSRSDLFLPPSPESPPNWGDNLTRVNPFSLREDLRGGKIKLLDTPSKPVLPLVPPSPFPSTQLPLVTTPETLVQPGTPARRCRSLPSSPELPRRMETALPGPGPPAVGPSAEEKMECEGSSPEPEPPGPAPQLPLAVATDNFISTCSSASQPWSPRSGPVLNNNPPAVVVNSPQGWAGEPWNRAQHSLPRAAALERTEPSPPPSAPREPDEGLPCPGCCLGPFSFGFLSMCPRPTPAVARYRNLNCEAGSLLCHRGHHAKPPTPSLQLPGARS
Procedure: as §1

[16] = target: PRKCQ (PKC theta) (Homo sapiens, UniProt Q04759); conditions: 1 h, 1 μM WEL028, 1 h preincubation
Procedure: as §1

[17] = target: PLK3 (Homo sapiens, UniProt Q9H4B4)
Procedure: as §1

[18] = target: CDK11/cyclin C (Homo sapiens, UniProt Q9BWU1); conditions: for Inhibition at 1 µM (%): CDK11/cyclin C, LanthaScreen Binding
CDK11/cyclin C, sequence (Q9BWU1 whole entry): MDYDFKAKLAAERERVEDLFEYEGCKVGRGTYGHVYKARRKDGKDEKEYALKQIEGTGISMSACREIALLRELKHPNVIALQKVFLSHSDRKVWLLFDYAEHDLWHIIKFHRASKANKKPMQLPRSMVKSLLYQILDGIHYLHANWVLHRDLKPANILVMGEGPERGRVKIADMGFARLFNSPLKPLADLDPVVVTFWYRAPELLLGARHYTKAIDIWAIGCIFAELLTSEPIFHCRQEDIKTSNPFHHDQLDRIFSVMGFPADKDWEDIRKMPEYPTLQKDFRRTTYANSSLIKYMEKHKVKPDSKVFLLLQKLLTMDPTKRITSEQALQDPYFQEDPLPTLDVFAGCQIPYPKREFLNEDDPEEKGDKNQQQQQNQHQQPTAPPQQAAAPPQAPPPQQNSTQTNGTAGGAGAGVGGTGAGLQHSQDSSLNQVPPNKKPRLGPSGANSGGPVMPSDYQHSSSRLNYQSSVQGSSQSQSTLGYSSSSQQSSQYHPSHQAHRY
CDK11/cyclin C, sequence (P24863 whole entry partner): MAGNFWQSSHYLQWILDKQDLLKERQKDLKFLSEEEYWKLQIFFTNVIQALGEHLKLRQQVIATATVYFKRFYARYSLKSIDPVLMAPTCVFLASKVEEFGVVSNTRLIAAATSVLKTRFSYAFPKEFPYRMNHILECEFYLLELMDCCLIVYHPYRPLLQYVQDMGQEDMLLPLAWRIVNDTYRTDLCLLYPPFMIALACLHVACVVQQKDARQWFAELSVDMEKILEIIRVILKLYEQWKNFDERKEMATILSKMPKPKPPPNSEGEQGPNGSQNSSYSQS
Procedure: as §1

[19] = target: MST1R (RON) (Homo sapiens, UniProt Q04912)
Procedure: as §1

[20] = target: GRK5 (Homo sapiens, UniProt P34947)
Procedure: as §1

[21] = target: T2, HIPK4 (Homo sapiens, UniProt Q8NE63)
T2 sequence (Q8NE63 1-616): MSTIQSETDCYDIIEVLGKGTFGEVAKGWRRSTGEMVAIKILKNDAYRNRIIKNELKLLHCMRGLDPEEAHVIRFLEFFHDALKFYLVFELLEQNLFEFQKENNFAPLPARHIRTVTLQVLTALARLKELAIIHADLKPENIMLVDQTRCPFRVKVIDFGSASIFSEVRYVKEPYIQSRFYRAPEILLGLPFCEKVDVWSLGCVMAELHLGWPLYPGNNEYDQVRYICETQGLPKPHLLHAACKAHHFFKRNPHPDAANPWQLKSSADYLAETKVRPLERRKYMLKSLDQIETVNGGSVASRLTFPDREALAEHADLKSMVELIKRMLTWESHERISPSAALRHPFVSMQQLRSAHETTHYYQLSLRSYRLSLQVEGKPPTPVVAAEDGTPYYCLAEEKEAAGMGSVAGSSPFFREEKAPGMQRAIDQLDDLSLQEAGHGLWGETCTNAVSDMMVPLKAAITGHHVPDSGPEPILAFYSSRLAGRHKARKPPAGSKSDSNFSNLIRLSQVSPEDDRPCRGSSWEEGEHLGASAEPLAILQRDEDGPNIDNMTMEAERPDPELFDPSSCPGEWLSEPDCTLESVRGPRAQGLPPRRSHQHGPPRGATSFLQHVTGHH
Procedure: as §1

[22] = read-out: Inhibition at 1 µM (%)
[23] = 1 h, 1 μM WEL028, 1 h preincubation
[24] = 1 µM, ZLYTE, ATP Km app, listed as WEL028, 1 µM

## C#CCOc1ccc(Nc2ncc(Cl)c(Nc3ccccc3NC(=O)C=C)n2)c(OC)c1 [Compound 6]
[1]
  IC50: 0.0501 µM
[1]; 1 h
  inhibition at 1 µM: 94%
[1]; IC50 on that kinase divided by IC50 on FES^S700C
  Apparent fold selectivity: 12 fold
[1]; [22]
  inhibition at 1 µM: 94%
[2]; [23]
  inhibition at 1 µM: 46%
[2]; MAP2K3 (MEK3), 1 µM, LanthaScreen Binding, listed as WEL028, 1 µM
  Inhibition at 1 µM (%): 53%
[2]; read-out: Inhibition at 1 µM (%), MAP2K3 (MEK3), 1 µM, LanthaScreen Binding
  inhibition at 1 µM: 38%
[3]
  inhibition at 1 µM: 0%
[4]; [24]
  Inhibition at 1 µM (%): -1% and 9%
[4]; [23]
  inhibition at 1 µM: 4%
[5]; [23]
  inhibition at 1 µM: 12%
[5]; NEK2, 1 µM, ZLYTE, ATP Km app
  Inhibition at 1 µM (%): 21%
[6]; [23]
  inhibition at 1 µM: 5%
[6]; EPHA4, 1 µM, ZLYTE, ATP Km app, listed as WEL028, 1 µM
  Inhibition at 1 µM (%): 4%
[6]; read-out: Inhibition at 1 µM (%), EPHA4, 1 µM, ZLYTE, ATP Km app
  inhibition at 1 µM: 5%
[7]; [24]
  Inhibition at 1 µM (%): 0% and 10%
[7]; [23]
  inhibition at 1 µM: 5%
[8]; [23]
  inhibition at 1 µM: 2%
[8]; PRKACA (PKA), 1 µM, ZLYTE, ATP Km app, listed as WEL028, 1 µM
  Inhibition at 1 µM (%): 4% and -1%
[9]; [23]
  inhibition at 1 µM: 3%
[9]
  Inhibition at 1 µM (%): 2%
[9]; listed as WEL028, 1 µM
  Inhibition at 1 µM (%): 5%
[10]; [23]
  inhibition at 1 µM: 6%
[10]; read-out: Inhibition at 1 µM (%), EPHA6, 1 µM, LanthaScreen Binding
  inhibition at 1 µM: 5%
[11]; [23]
  inhibition at 1 µM: -4%
[11]; PAK4, 1 µM, ZLYTE, ATP Km app, listed as WEL028, 1 µM
  Inhibition at 1 µM (%): -8% and 1%
[12]; [23]
  inhibition at 1 µM: 4%
[12]; MAPK7 (ERK5), 1 µM, ZLYTE, ATP Km app, listed as WEL028, 1 µM
  Inhibition at 1 µM (%): 3%
[12]; read-out: Inhibition at 1 µM (%), MAPK7 (ERK5), 1 µM, ZLYTE, ATP Km app
  inhibition at 1 µM: 4%
[13]; [23]
  inhibition at 1 µM: -12%
[13]; MAP4K2 (GCK), 1 µM, ZLYTE, ATP Km app
  Inhibition at 1 µM (%): -23%
[14]; [23]
  inhibition at 1 µM: 0%
[14]; BLK, 1 µM, ZLYTE, ATP Km app, listed as WEL028, 1 µM
  Inhibition at 1 µM (%): 4% and -5%
[15]; 1 µM, LanthaScreen Binding, listed as WEL028, 1 µM
  Inhibition at 1 µM (%): 9%
[15]; [23]
  inhibition at 1 µM: 10%
[15]; read-out: Inhibition at 1 µM (%), 1 µM, LanthaScreen Binding
  inhibition at 1 µM: 10%
[16]
  inhibition at 1 µM: 8%
[17]; [23]
  inhibition at 1 µM: -1%
[17]; PLK3, 1 µM, ZLYTE, ATP Km app, listed as WEL028, 1 µM
  Inhibition at 1 µM (%): 2% and -3%
[18]; 1 μM WEL028, 1 h preincubation
  Inhibition (%): 5%
[18]
  Inhibition at 1 µM (%): 2%
[18]; listed as WEL028, 1 µM
  Inhibition at 1 µM (%): 7%
[19]; [23]
  inhibition at 1 µM: 5%
[19]; MST1R (RON), 1 µM, ZLYTE, ATP Km app, listed as WEL028, 1 µM
  Inhibition at 1 µM (%): 10% and 0%
[20]; 1 h
  inhibition at 1 µM: 4%
[20]; [22]
  inhibition at 1 µM: 4%
[21]; [23]
  inhibition at 1 µM: 14%
[21]; HIPK4, 1 µM, ZLYTE, ATP Km app, listed as WEL028, 1 µM
  Inhibition at 1 µM (%): 16%
[21]; read-out: Inhibition at 1 µM (%), HIPK4, 1 µM, ZLYTE, ATP Km app
  inhibition at 1 µM: 12%

— PMC7316778 (Nature Communications, 2020)
